According to US20220306623A1, “PYRIDYL OR PYRIMIDYL MTOR KINASE INHIBITORS” (GLAXOSMITHKLINE INTELLECTUAL PROPERTY DEVELOPMENT LIMITED, priority 2019, published 2022):

How the values were obtained:
[1] = tested on: type I collagen deposition in primary lung fibroblasts derived from human tissue; assay: High throughput type I collagen deposition (scar-in-a-jar) high content screening assay; type: cell-based; settings: Primary lung fibroblast, 72 h, human pulmonary fibroblasts, 384-well, TGF-β 1 ng/ml 72 h, total collagen area, read-out: mean pIC50, high throughput type I collagen deposition (scar-in-a-jar) (converted)
Method: Highthroughput, cellular type I collagen deposition was measured by adapting a published method; scar-in-a-jar (Chen et al., 2009) to primary lung fibroblasts derived from human tissue and combining with high content analysis to permit fluorescent quantification of collagen deposited in the extracellular matrix (ECM). The human biological samples were sourced ethically and their research use was in accordance with the terms of the informed consents.
Test compounds were dissolved in 100% DMSO to give 10 mM (stocks) and further diluted to give half log dilutions to generate an 11 point concentration response curve. 1 ul was transferred to 384-well plates (Greiner Group, Kremsmunster, Austria, Catalogue No Greine 781280r).
Human pulmonary fibroblasts were maintained in DMEM media (Gibco, Catalogue No 21969) supplemented with 4 mM L-glutamine (Gibco Catalogue No 25030-024) and 10% heat inactivated FBS (Gibco, Catalogue No 10099-141) at 37° C. in 10% CO2. Cells were harvested and resuspended at 4×10^6 cells/ml in a T175 cell culture flask (BD Falcom, Catalogue No: 353112) containing 50 mL of culture media. After 4 days 37° C. in 10% CO2, cells were harvested and seeded at 4000 cells per well ([…]) into 384-well plates (BD Falcon, Catalogue No 353962Greiner) in assay media (0.4% heat inactivated FBS, 4 mM L-glutamine). Plates were sealed with breathable seals (Sigma, Catalogue No. BEM-1). Assay plates were incubated for 72 h at 37° C. in 10% CO2.
Assay media was supplemented with 112.5 mg/ml Ficoll 70 (Sigma, Catalogue No F2878), 75 mg/ml Ficoll 400 (Sigma, Catalogue No F4375) and 50 µg/ml ascorbic acid (Sigma, Catalogue No A8960). 30 μL assay media were added to 1 l compound ([…] compound concentration in 1% DMSO). Diluted compounds (10 μL) were transferred to plates containing cells and incubated for 3 h at 37° C. in 10% CO2. Transforming growth factor (TGF)-β (R&D systems, Catalogue No 100-B/CF) was reconstituted to give 10 µg/mL (stock) and further diluted in assay media containing Ficoll and ascorbic acid (1 in 3333). TGF-β was added to cell plates (1 ng/ml final) and cells incubated for 72 h at 37° C. in 10% CO2.
Media was aspirated from cells and 30 µL/well 100% ice-cold methanol added and incubated at RT for 5 min to fix cells. Methanol was aspirated and cells washed with PBS (3×). To block and permeabilise, cells were incubated with PBS containing 1% BSA and 0.1% Triton X 100 for 20 min, followed by PBS wash (3×). Cells were incubated with mouse anti human type I collagen monoclonal antibody (Sigma, Catalogue No C2456) diluted 1:1000 in PBS for 24 h at 4° C. Cells were washed with PBS containing 0.1% Tween-20 (3×) and incubated with secondary alexa fluor 488 goat-anti-mouse antibody (Invitrogen, Catalogue No A11001, 1 in 500 in PBS) and Hoechst 33342 (Sigma, Catalogue No H21492), 1 in 1000 in PBS) for 1 h at RT, prior to washing with PBS containing 0.1% Tween (×4).
Type I collagen immunoreactivity was detected using the INCell 2000 Analyzer (GE Healthcare, INcell 2000) set to excitation and emission wavelengths for DAPI and FITC with laser focus and exposure adjusted to appropriate levels. Images were imported and analysed using Columbus software (Perkin Elmer) and computational algorithms to quantify “total collagen area” and “cell count”.
Data analysis was performed by determining 0/inhibition values for test compounds relative to the minimum (media only) and maximum responses (TGF-βstimulation) with non-linear regression analysis to determine IC50 values for test compounds.

mTOR = target: T1, mTOR (Homo sapiens, UniProt P42345); assay: mTOR kinobeads competition-binding assay; settings: HuT-78 cell lysate, bead-immobilized capturing ligand, 2 h at 4° C., mean of multiple experiments; read-out: mean pIC50, mTOR kinobeads assay (converted)
T1 construct: capturing of endogenously expressed target proteins from cell extracts by a bead-immobilized capturing ligand; endogenous in cells; host or cells: HuT-78 cells (ECACC 88041901), cell lysate
Method: The affinity of test compounds for mTOR was determined in the mTOR kinobeads assay. This is a competition-binding assay based on the capturing of endogenously expressed target proteins from cell extracts by a bead-immobilized capturing ligand in the presence of the test compound.
HuT-78 cells (European Collection of Authenticated Cell Cultures, 88041901) were cultured according to vendor's instructions. Frozen cell pellets were homogenized in 3× pellet volumes lysis buffer (50 mM Tris-HCl, 0.4% (v/v) Igepal-CA630, 5% glycerol, 150 mM NaCl, 1.5 mM MgCl2, 25 mM NaF, 1 mM sodium vanadate, 1 mM DTT, pH 7.5, supplemented with EDTA-free protease inhibitor tablet (Roche)). The sample was dispersed using a Dounce homogenizer, kept rotating for 30 min at 4° C., and centrifuged for 10 min at 20000 gat 4° C. The supernatant was centrifuged again for 1 h at 145 000 g. The protein concentration was determined by Bradford assay (BioRad), aliquots were snap frozen in liquid nitrogen and stored at −80° C.
The capturing matrices were generated by derivatizing N-hydroxysuccinimide (NHS) activated Sepharose 4 beads (GE Healthcare) with the functionalized ligands Compound A and Compound C at a ligand density of 5 mM. Remaining NHS-groups were blocked with ethanolamine.
For the mTOR kinobeads assay the matrices were combined in a 1:1 ratio and equilibrated in DP buffer (50 mM Tris-HCl (pH 7.5), 0.4% (v/v) Igepal-CA630, 5% (v/v) glycerol, 150 mM NaCl, 1.5 mM MgCl2, 25 mM NaF, 1 mM Na3VO4, 1 mM dithiothreitol). All steps of the mTOR kinobeads assay were performed at 4° C. or on ice. The cell lysate was diluted with DP buffer to a final concentration of 5 mg/ml and a final detergent concentration of 0.4% (v/v) Igepal-CA630. For the assay 250 μg cell lysate and 2.5 μl capturing matrix per well (final assay volume: 75 μl) were incubated in the presence of test compounds in a 384-well filter plate (MultiScreenHTS HV Filter Plate, 0.45 μm, MZHVNOW50, Merck Millipore). Each plate contained 16 positive (100 μM Compound B) and 16 negative (2% v/v DMSO) control wells. Compounds were tested in a concentration-response applying 1:3 or 1:4 dilution steps for in total 11 data points. DMSO concentration was 2% (v/v). After 2 h incubation on an overhead shaker (Roto-Shake Genie, Scientific Industries Inc.) at 4° C. the non-bound fraction was removed by washing the beads with DP buffer. Proteins retained on the beads were eluted in SDS sample buffer (200 mM Tris (pH 7.4), 250 mM Trizma Base, 4% (w/v) SDS, 20% (v/v) glycerol, 0.01% (w/v) bromophenol blue, 50 mM dithiothreitol) into a collection plate (384 well polypropylene microplate, V-shape, Greiner, 781 280). Eluates were spotted on nitrocellulose membranes (400 nl per spot) using an automated pin-tool liquid transfer (Biomek FX, Beckman). After drying, the membranes were rehydrated in 20% (v/v) ethanol and blocked by incubation with Odyssey blocking buffer (LICOR, 927-40000) for 1 h at room temperature. Blocked membranes were incubated overnight at 25° C. with Odyssey blocking buffer supplemented with a specific anti-mTOR antibody (Cell Signaling, 2972; 1:500) and 0.4% TWEEN-20. Then the membranes were washed in PBST buffer and incubated for 60 minutes at room temperature with the detection antibody (IRDye™ labelled antibody from LI-COR) diluted in Odyssey blocking buffer (LICOR 927-40000) containing 0.2% TWEEN-20. Then the membranes were washed with PBST and finally rinsed twice with PBS buffer to remove residual Tween-20. The membranes were then scanned with the Odyssey® Infrared Imaging System (LI-COR Biosciences). Fluorescence signals were recorded and analyzed according to the instructions of the manufacturer. Concentration response curves were computed with the software Activity Base. All data were normalized to the mean of 16 high (negative control) and 16 low (positive control) control wells on each plate. […]

IC50 (mTOR) [nM] | Structure (SMILES) | IC50 [1] [nM]
– | CC[C@H]1COCC(=O)N1c1cc(CS(=O)(=O)N(C)C)cc(-c2ccc3[nH]c(CNC)cc3n2)n1 [Example 7, (S)-1-(2-(3-ethyl-5-oxomorpholino)-6-(2-((methylamino)methyl)-1H-pyrrolo[3,2-b]pyridin-5-yl)pyridin-4-yl)-N,N-dimethylmethanesulfonamide] | 20 to 3160
≤ 0.316 | CC[C@H]1COCCN1c1cc(CS(C)(=O)=O)nc(-c2ccc3[nH]c(C)cc3n2)n1 [Example 12, (3S)-3-ethyl-4-[6-(methanesulfonylmethyl)-2-{2-methyl-1H-pyrrolo[3,2-b]pyridin-5-yl}pyrimidin-4-yl]morpholine] | 20 to 3160
– | CC[C@H]1COCCN1c1cc(C2(S(C)(=O)=O)CCN(C)CC2)cc(-c2ccc3[nH]c(CO)cc3n2)n1 [Example 20, (S)-(5-(6-(3-ethylmorpholino)-4-(1-methyl-4-(methylsulfonyl)piperidin-4-yl)pyridin-2-yl)-1H-pyrrolo[3,2-b]pyridin-2-yl)methanol] | 20 to 3160
– | CC[C@H]1COCCN1c1cc(C2(S(C)(=O)=O)CCN(C)CC2)cc(-c2ccc3[nH]c(C)cc3n2)n1 [Example 19, (S)-3-ethyl-4-(6-(2-methyl-1H-pyrrolo[3,2-b]pyridin-5-yl)-4-(1-methyl-4-(methylsulfonyl)piperidin-4-yl)pyridin-2-yl)morpholine] | 20 to 3160
– | CC[C@H]1COCC(=O)N1c1cc(CS(C)(=O)=O)cc(-c2ccc3[nH]c(CNC)cc3n2)n1 [Example 28, (S)-5-ethyl-4-(6-(2-((methylamino)methyl)-1H-pyrrolo[3,2-b]pyridin-5-yl)-4-((methylsulfonyl)methyl)pyridin-2-yl)morpholin-3-one] | 20 to 3160
≤ 0.2 | CC[C@H]1COCC(=O)N1c1cc(CS(C)(=O)=O)nc(-c2ccc3[nH]c(CO)cc3n2)n1 [Example 5, (5S)-5-ethyl-4-{2-[2-(hydroxymethyl)-1H-pyrrolo[3,2-b]pyridin-5-yl]-6-(methanesulfonylmethyl)pyrimidin-4-yl}morpholin-3-one] | 20 to 3160
≤ 1.26 | CC[C@H]1COCC(=O)N1c1cc(CS(=O)(=O)N(C)C)cc(-c2ccc3[nH]c(CO)cc3n2)n1 [Example 29, (S)-1-(2-(3-ethyl-5-oxomorpholino)-6-(2-(hydroxymethyl)-1H-pyrrolo[3,2-b]pyridin-5-yl)pyridin-4-yl)-N,Ndimethylmethanesulfonamide] | 20 to 3160
≤ 0.2 | CC[C@H]1COCCN1c1cc(CS(=O)(=O)NC)nc(-c2ccc3[nH]c(C)cc3n2)n1 [Example 11, 1-{6-[(3S)-3-ethylmorpholin-4-yl]-2-{2-methyl-1H-pyrrolo[3,2-b]pyridin-5-yl}pyrimidin-4-yl}-N-methylmethanesulfonamide] | 20
– | CC[C@H]1COCCN1c1cc(C2(S(C)(=O)=O)CCNCC2)nc(-c2ccc3[nH]c(C)cc3n2)n1 [Example 17, (3S)-3-ethyl-4-[6-(4-methanesulfonylpiperidin-4-yl)-2-{2-methyl-1H-pyrrolo[3,2-b]pyridin-5-yl}pyrimidin-4-yl]morpholine] | 20 to 3160
